# Source: patent US10428083B2, “Heterocyclylmethyl-thienouracile as antagonists of the adenosine-A2B-receptor” (BAYER PHARMA AKTIENGESELLSCHAFT, priority 2015, dated 2019)
# Target: human adenosine A2b receptor (Homo sapiens (Human), UniProt P29275)
# Assay: Cellular in vitro reporter gene test for A2b receptor activity (CHO-K1, CRE-luciferase, NECA stimulation)
# Type: cell-based
# Conditions: recombinant CHO-K1 cell line, CRE-luciferase reporter, antagonism of EC50 concentration of NECA; in some cases means of several determinations, rounded to two significant figures; read-out: A2b receptor IC50
# Procedure, shortened: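 CHO-K1 cells with CRE-driven luciferase; antagonists co-incubated with NECA at its EC50, determined in a pre-experiment on each test day. Luciferase read by luminescence 3 h after NECA addition.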
# Chain of human adenosine A2b receptor (P29275 whole entry): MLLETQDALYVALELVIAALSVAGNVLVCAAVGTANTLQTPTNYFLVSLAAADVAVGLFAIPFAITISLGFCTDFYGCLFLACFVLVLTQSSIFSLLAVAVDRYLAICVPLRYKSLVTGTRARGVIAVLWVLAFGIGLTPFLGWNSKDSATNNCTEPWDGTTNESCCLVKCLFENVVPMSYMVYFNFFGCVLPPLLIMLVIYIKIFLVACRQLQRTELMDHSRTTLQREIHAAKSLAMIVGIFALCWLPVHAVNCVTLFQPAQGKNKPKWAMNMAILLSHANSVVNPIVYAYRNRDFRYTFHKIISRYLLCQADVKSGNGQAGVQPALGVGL
row,Compound,IC50 [nM]
1,"COCCn1c(=O)n(CC(F)(F)F)c(=O)c2c(C)c(CN3CCNC3=S)sc21 [Example 41, 1-(2-Methoxyethyl)-5-methyl-6-[(2-thioxoimidazolidin-1-yl)methyl]-3-(2,2,2-trifluoroethyl)thieno[2,3-d]pyrimidine-2,4(1H,3H)-dione]",12
2,"Cc1c(CN2CCNC2=S)sc2c1c(=O)n(CC(F)F)c(=O)n2CCCF [Example 42, 3-(2,2-Difluoroethyl)-1-(3-fluoropropyl)-5-methyl-6-[(2-thioxoimidazolidin-1-yl)methyl]thieno[2,3-d]pyrimidine-2,4(1H,3H)-dione]",11
3,COCCn1c(=O)n(CC(F)F)c(=O)c2c(C)c(CN3CCNC3=S)sc21 [Example 43],7.7
4,"CCn1c(=O)c2c(C(F)F)c(CN3CCNC3=S)sc2n(CCC(F)(F)F)c1=O [Example 44, 5-(Difluoromethyl)-3-ethyl-6-[(2-thioxoimidazolidin-1-yl)methyl]-1-(3,3,3-trifluoropropyl)thieno[2,3-d]pyrimidine-2,4(1H,3H)-dione]",5.2
5,"CCn1c(=O)c2c(C(F)F)c(CN3CCNC3=S)sc2n(CCOC)c1=O [Example 45, 5-(Difluoromethyl)-3-ethyl-1-(2-methoxyethyl)-6-[(2-thioxoimidazolidin-1-yl)methyl]thieno[2,3-d]pyrimidine-2,4(1H,3H)-dione]",12
6,"COCCn1c(=O)n(CC(C)C)c(=O)c2c(C)c(CN3CCN(C=O)C3=S)sc21 [Example 46, 3-{[3-Isobutyl-1-(2-methoxyethyl)-5-methyl-2,4-dioxo-1,2,3,4-tetrahydrothieno[2,3-d]pyrimidin-6-yl]methyl}-2-thioxoimidazolidine-1-carbaldehyde]",29
7,"CCn1c(=O)c2c(C)c(CN3CCNC3=O)sc2n(CC(F)(F)F)c1=O [Example 47, 3-Ethyl-5-methyl-6-[(2-oxoimidazolidin-1-yl)methyl]-1-(2,2,2-trifluoroethyl)thieno[2,3-d]pyrimidine-2,4(1H,3H)-dione]",14
8,"CCn1c(=O)c2c(C)c(CN3CCNC3=O)sc2n(CCC(F)(F)F)c1=O [Example 48, 3-Ethyl-5-methyl-6-[(2-oxoimidazolidin-1-yl)methyl]-1-(3,3,3-trifluoropropyl)thieno[2,3-d]pyrimidine-2,4(1H,3H)-dione]",1.4
9,"CCn1c(=O)c2c(C)c(CN3CCNC3=O)sc2n(CCCC(F)(F)F)c1=O [Example 49, 3-Ethyl-5-methyl-6-[(2-oxoimidazolidin-1-yl)methyl]-1-(4,4,4-trifluorobutyl)thieno[2,3-d]pyrimidine-2,4(1H,3H)-dione]",2.5
10,"CCn1c(=O)c2c(C)c(CN3CCNC3=O)sc2n(CCF)c1=O [Example 50, 3-Ethyl-1-(2-fluoroethyl)-5-methyl-6-[(2-oxoimidazolidin-1-yl)methyl]thieno[2,3-d]pyrimidine-2,4(1H,3H)-dione]",4.6
11,"CCn1c(=O)c2c(C)c(CN3CCNC3=O)sc2n(CCCF)c1=O [Example 51, 3-Ethyl-1-(3-fluoropropyl)-5-methyl-6-[(2-oxoimidazolidin-1-yl)methyl]thieno[2,3-d]pyrimidine-2,4(1H,3H)-dione]",12
12,"CCn1c(=O)c2c(C)c(CN3CCNC3=O)sc2n(CCCCF)c1=O [Example 52, 3-Ethyl-1-(4-fluorobutyl)-5-methyl-6-[(2-oxoimidazolidin-1-yl)methyl]thieno[2,3-d]pyrimidine-2,4(1H,3H)-dione]",6.6
13,"C=C(Cn1c(=O)n(CC)c(=O)c2c(C)c(CN3CCNC3=O)sc21)C(F)(F)F [Example 53, 3-Ethyl-5-methyl-6-[(2-oxoimidazolidin-1-yl)methyl]-1-[2-(trifluoromethyl)prop-2-en-1-yl]thieno[2,3-d]pyrimidine-2,4(1H,3H)-dione]",14
14,"CCn1c(=O)c2c(C)c(CN3CCNC3=O)sc2n(CCOC(F)(F)F)c1=O [Example 57, 3-Ethyl-5-methyl-6-[(2-oxoimidazolidin-1-yl)methyl]-1-[2-(trifluoromethoxy)ethyl]thieno[2,3-d]pyrimidine-2,4(1H,3H)-dione]",0.88
15,"CCn1c(=O)c2c(C)c(CN3CCNC3=O)sc2n(CCSC(F)(F)F)c1=O [Example 58, 3-Ethyl-5-methyl-6-[(2-oxoimidazolidin-1-yl)methyl]-1-{2-[(trifluoromethyl)sulphanyl]ethyl}thieno[2,3-d]pyrimidine-2,4(1H,3H)-dione]",2.6
16,"CCOCCn1c(=O)n(CC)c(=O)c2c(C)c(CN3CCNC3=O)sc21 [Example 60, 1-(2-Ethoxyethyl)-3-ethyl-5-methyl-6-[(2-oxoimidazolidin-1-yl)methyl]thieno[2,3-d]pyrimidine-2,4(1H,3H)-dione]",13
17,"CCn1c(=O)c2c(C)c(CN3CCNC3=O)sc2n(CCOC(C)C)c1=O [Example 61, 3-Ethyl-1-(2-isopropoxyethyl)-5-methyl-6-[(2-oxoimidazolidin-1-yl)methyl]thieno[2,3-d]pyrimidine-2,4(1H,3H)-dione]",53
18,"CCn1c(=O)c2c(C)c(CN3CCNC3=O)sc2n(CC2COC2)c1=O [Example 72, 3-Ethyl-5-methyl-1-(oxetan-3-ylmethyl)-6-[(2-oxoimidazolidin-1-yl)methyl]thieno[2,3-d]pyrimidine-2,4(1H,3H)-dione]",8.1

row,Compound,IC50 [nM]
1,"CCn1c(=O)c2c(C)c(CN3CCNC3=O)sc2n(C)c1=O [Example 76, 3-Ethyl-1,5-dimethyl-6-[(2-oxoimidazolidin-1-yl)methyl]thieno[2,3-d]pyrimidine-2,4(1H,3H)-dione]",9.3
2,"CCCn1c(=O)n(CC)c(=O)c2c(C)c(CN3CCNC3=O)sc21 [Example 77, 3-Ethyl-5-methyl-6-[(2-oxoimidazolidin-1-yl)methyl]-1-propylthieno[2,3-d]pyrimidine-2,4(1H,3H)-dione]",5.6
3,"CCCCn1c(=O)n(CC)c(=O)c2c(C)c(CN3CCNC3=O)sc21 [Example 78, 1-Butyl-3-ethyl-5-methyl-6-[(2-oxoimidazolidin-1-yl)methyl]thieno[2,3-d]pyrimidine-2,4(1H,3H)-dione]",1.2
4,"CCn1c(=O)c2c(C)c(CN3CCNC3=O)sc2n(CCC(C)C)c1=O [Example 79, 3-Ethyl-5-methyl-1-(3-methylbutyl)-6-[(2-oxoimidazolidin-1-yl)methyl]thieno[2,3-d]pyrimidine-2,4(1H,3H)-dione]",9.9
5,"CCn1c(=O)c2c(C)c(CN3CCNC3=O)sc2n(CC2CCC2)c1=O [Example 80, 1-(Cyclobutylmethyl)-3-ethyl-5-methyl-6-[(2-oxoimidazolidin-1-yl)methyl]thieno[2,3-d]pyrimidine-2,4(1H,3H)-dione]",1.4
6,"CCn1c(=O)c2c(C)c(CN3CCNC3=O)sc2n(CC#N)c1=O [Example 81, {3-Ethyl-5-methyl-2,4-dioxo-6-[(2-oxoimidazolidin-1-yl)methyl]-3,4-dihydrothieno[2,3-d]pyrimidin-1 (2H)-yl}acetonitrile]",14
7,"CCn1c(=O)c2c(C)c(CN3CCNC3=O)sc2n(Cc2nonc2C)c1=O [Example 82, 3-Ethyl-5-methyl-1-[(4-methyl-1,2,5-oxadiazol-3-yl)methyl]-6-[(2-oxoimidazolidin-1-yl)methyl]thieno[2,3-d]pyrimidine-2,4(1H,3H)-dione]",17
8,"CCn1c(=O)c2c(C)c(CN3CCNC3=O)sc2n(CCN(C)C)c1=O [Example 83, 1-[2-(Dimethylamino)ethyl]-3-ethyl-5-methyl-6-[(2-oxoimidazolidin-1-yl)methyl]thieno[2,3-d]pyrimidine-2,4(1H,3H)-dione]",380
9,"CCCn1c(=O)c2c(C)c(CN3CCNC3=O)sc2n(CCOC)c1=O [Example 84, 1-(2-Methoxyethyl)-5-methyl-6-[(2-oxoimidazolidin-1-yl)methyl]-3-propylthieno[2,3-d]pyrimidine-2,4(1H,3H)-dione]",3.9
10,"C=CCn1c(=O)c2c(C)c(CN3CCNC3=O)sc2n(CCOC)c1=O [Example 85, 3-Allyl-1-(2-methoxyethyl)-5-methyl-6-[(2-oxoimidazolidin-1-yl)methyl]thieno[2,3-d]pyrimidine-2,4(1H,3H)-dione]",18
11,"Cc1c(CN2CCNC2=O)sc2c1c(=O)n(CC(C)C)c(=O)n2CCC(F)(F)F [Example 87, 3-Isobutyl-5-methyl-6-[(2-oxoimidazolidin-1-yl)methyl]-1-(3,3,3-trifluoropropyl)thieno[2,3-d]pyrimidine-2,4(1H,3H)-dione]",2.3
12,"Cc1c(CN2CCNC2=O)sc2c1c(=O)n(CC(C)C)c(=O)n2CCF [Example 88, 1-(2-Fluoroethyl)-3-isobutyl-5-methyl-6-[(2-oxoimidazolidin-1-yl)methyl]thieno[2,3-d]pyrimidine-2,4(1H,3H)-dione]",6.7
13,"COCCn1c(=O)n(CC(C)C)c(=O)c2c(C)c(CN3CCNC3=O)sc21 [Example 89, 3-Isobutyl-1-(2-methoxyethyl)-5-methyl-6-[(2-oxoimidazolidin-1-yl)methyl]thieno[2,3-d]pyrimidine-2,4(1H,3H)-dione]",8.7
14,"Cc1c(CN2CCNC2=O)sc2c1c(=O)n(CC(C)C)c(=O)n2C [Example 91, 3-Isobutyl-1,5-dimethyl-6-[(2-oxoimidazolidin-1-yl)methyl]thieno[2,3-d]pyrimidine-2,4(1H,3H)-dione]",11
15,COCCn1c(=O)n(CC2CC2)c(=O)c2c(C)c(CN3CCNC3=O)sc21 [Example 92],9.7
16,"Cc1c(CN2CCNC2=O)sc2c1c(=O)n(CC(F)(F)F)c(=O)n2CCCF [Example 93, 1-(3-Fluoropropyl)-5-methyl-6-[(2-oxoimidazolidin-1-yl)methyl]-3-(2,2,2-trifluoroethyl)thieno[2,3-d]pyrimidine-2,4(1H,3H)-dione]",11
17,"COCCn1c(=O)n(CC(F)(F)F)c(=O)c2c(C)c(CN3CCNC3=O)sc21 [Example 94, 1-(2-Methoxyethyl)-5-methyl-6-[(2-oxoimidazolidin-1-yl)methyl]-3-(2,2,2-trifluoroethyl)thieno[2,3-d]pyrimidine-2,4(1H,3H)-dione]",7.7
